Values after ≈ are worked out from the molar mass of the structure shown.
What was measured:
[1] = Metabolic stability in human liver microsomes assessed as half life at 1 uM preincubated for 5 mins followed by NADPH addition and measured after 5 to 60 mins by LC-MS analysis; type: ADME, Microsome; details: time 10-65 min
[2] = system: Pseudomonas aeruginosa; assay: Antibacterial activity against Pseudomonas aeruginosa ATCC27853 assessed as reduction in bacterial growth measured after 18 to 24 hrs by CLSI protocol based method; type: functional; details: time 18-24 hrs
[3] = system: Klebsiella pneumoniae; assay: Antibacterial activity against Klebsiella pneumoniae ATCC700603 assessed as reduction in bacterial growth measured after 18 to 24 hrs by CLSI protocol based method; type: functional; details: time 18-24 hrs
[4] = system: Klebsiella pneumoniae; assay: Antibacterial activity against Klebsiella pneumoniae clinical isolate KPN+22-1 assessed as reduction in bacterial growth measured after 18 to 24 hrs by CLSI protocol based method; type: functional; details: time 18-24 hrs
[5] = Intrinsic clearance in mouse; type: ADME, organism-based; details: read-out: CLH
[6] = Metabolic stability in rat liver microsomes assessed as half life at 1 uM preincubated for 5 mins followed by NADPH addition and measured after 5 to 60 mins by LC-MS analysis; type: ADME, Microsome; details: time 10-65 min
[7] = Metabolic stability in mouse liver microsomes assessed as half life at 1 uM preincubated for 5 mins followed by NADPH addition and measured after 5 to 60 mins by LC-MS analysis; type: ADME, Microsome; details: time 10-65 min
[8] = system: Pseudomonas aeruginosa; assay: Antibacterial activity against Pseudomonas aeruginosa clinical isolate PAE22-1 assessed as reduction in bacterial growth measured after 18 to 24 hrs by CLSI protocol based method; type: functional; details: time 18-24 hrs
[9] = system: Escherichia coli; assay: Potency index, ratio of CHIR-090 MIC to test compound MIC for antibacterial activity against Escherichia coli ATCC25922 assessed as reduction in bacterial growth measured after 18 to 24 hrs by CLSI protocol based method; type: functional; details: time 18-24 hrs
[10] = Intrinsic clearance in rat; type: ADME; details: read-out: CLH
[11] = Intrinsic clearance in human; type: ADME; details: read-out: CLH
[12] = Metabolic stability in mouse liver microsomes assessed as intrinsic clearance at 1 uM preincubated for 5 mins followed by NADPH addition and measured after 5 to 60 mins by LC-MS analysis; type: ADME, Microsome; details: time 10-65 min
[13] = system: Escherichia coli; assay: Antibacterial activity against Escherichia coli ATCC25922 assessed as reduction in bacterial growth measured after 18 to 24 hrs by CLSI protocol based method; type: functional; details: time 18-24 hrs
[14] = Metabolic stability in rat liver microsomes assessed as intrinsic clearance at 1 uM preincubated for 5 mins followed by NADPH addition and measured after 5 to 60 mins by LC-MS analysis; type: ADME, Microsome; details: time 10-65 min
[15] = Metabolic stability in human liver microsomes assessed as intrinsic clearance at 1 uM preincubated for 5 mins followed by NADPH addition and measured after 5 to 60 mins by LC-MS analysis; type: ADME, Microsome; details: time 10-65 min, read-out: CLH
[16] = target: T1, Cytochrome P450 1A2 (Homo sapiens, UniProt P05177); assay: Inhibition of CYP1A2 in human liver microsomes using alpha-naphthoflavone […] preincubated for 5 mins followed by substrate addition ande measured after 120 mins in presence of NADPH by LC-MS/MS analysis; type: ADME, Microsome
T1 sequence (P05177 whole entry): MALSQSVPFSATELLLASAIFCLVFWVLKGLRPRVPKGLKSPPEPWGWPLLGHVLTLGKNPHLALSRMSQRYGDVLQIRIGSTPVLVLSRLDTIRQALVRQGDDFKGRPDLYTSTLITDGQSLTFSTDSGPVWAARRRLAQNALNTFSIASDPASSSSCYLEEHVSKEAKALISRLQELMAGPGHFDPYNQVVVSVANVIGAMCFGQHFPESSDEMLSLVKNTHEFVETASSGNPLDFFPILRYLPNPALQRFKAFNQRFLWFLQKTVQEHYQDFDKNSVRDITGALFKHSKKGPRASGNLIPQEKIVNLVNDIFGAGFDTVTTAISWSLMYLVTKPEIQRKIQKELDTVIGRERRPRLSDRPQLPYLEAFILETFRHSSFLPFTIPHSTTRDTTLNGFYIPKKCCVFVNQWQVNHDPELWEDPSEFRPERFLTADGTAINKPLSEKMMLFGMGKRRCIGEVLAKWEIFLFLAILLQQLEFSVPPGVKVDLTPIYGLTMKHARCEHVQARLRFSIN

[17] = Solubility of the compound at pH 9.0 by LC-MS/MS analysis; type: physicochemical; details: buffer
[18] = target: Cytochrome P450 2C19 (Homo sapiens, UniProt P33261); assay: Inhibition of CYP2C19 in human liver microsomes using nootkatone […] preincubated for 5 mins followed by substrate addition ande measured after 120 mins in presence of NADPH by LC-MS/MS analysis; type: ADME, Microsome
Chain of Cytochrome P450 2C19 (P33261 whole entry): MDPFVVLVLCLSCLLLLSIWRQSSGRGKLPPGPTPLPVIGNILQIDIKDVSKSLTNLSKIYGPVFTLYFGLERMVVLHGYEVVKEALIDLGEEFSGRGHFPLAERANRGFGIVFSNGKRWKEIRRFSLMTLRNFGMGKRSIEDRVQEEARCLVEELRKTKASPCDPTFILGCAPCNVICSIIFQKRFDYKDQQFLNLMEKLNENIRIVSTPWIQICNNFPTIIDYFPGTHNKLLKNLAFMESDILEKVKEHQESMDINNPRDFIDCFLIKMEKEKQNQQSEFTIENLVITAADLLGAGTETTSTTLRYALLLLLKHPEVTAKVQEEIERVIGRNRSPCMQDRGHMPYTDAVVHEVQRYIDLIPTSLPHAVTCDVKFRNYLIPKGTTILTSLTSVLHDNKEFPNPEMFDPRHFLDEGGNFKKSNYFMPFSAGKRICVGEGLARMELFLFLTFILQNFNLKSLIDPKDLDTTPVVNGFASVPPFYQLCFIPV

[19] = MRT (0 to t) in male Sprague-Dawley rat at 1 mg/kg, iv measured upto 24 hrs by LC-MS analysis; type: ADME, organism-based; details: in vivo
[20] = Oral bioavailability in male Sprague-Dawley rat at 10 mg/kg, IG measured upto 24 hrs by LC-MS analysis; type: ADME, organism-based; details: in vivo
[21] = Plasma protein binding in mouse at 1 uM incubated for 6 hrs by LC-MS/MS analysis; type: ADME, cell-free; details: read-out: PPB (converted)
[22] = Solubility of the compound at pH 6.8 by LC-MS/MS analysis; type: physicochemical; details: buffer
[23] = AUC (0 to t) in male Sprague-Dawley rat at 10 mg/kg, IG measured upto 24 hrs by LC-MS analysis; type: ADME, organism-based; details: in vivo, po
[24] = MRT (0 to t) in male Sprague-Dawley rat at 10 mg/kg, IG measured upto 24 hrs by LC-MS analysis; type: ADME, organism-based; details: in vivo, po
[25] = Half life in male Sprague-Dawley rat at 10 mg/kg, IG measured upto 24 hrs by LC-MS analysis; type: ADME, organism-based; details: in vivo, po
[26] = Stability in human plasma at 1 uM incubated for 6 hrs by LC-MS/MS analysis; type: ADME, cell-free; details: read-out: Stability
[27] = Clearance in male Sprague-Dawley rat at 1 mg/kg, iv measured upto 24 hrs by LC-MS analysis; type: ADME, organism-based; details: in vivo
[28] = Plasma protein binding in mouse assessed as drug recovery at 1 uM incubated for 6 hrs by LC-MS/MS analysis; type: ADME, cell-free; details: read-out: Drug recovery
[29] = Tmax in male Sprague-Dawley rat at 10 mg/kg, IG measured upto 24 hrs by LC-MS analysis; type: ADME, organism-based; details: in vivo, po
[30] = Plasma protein binding in human assessed as drug recovery at 1 uM incubated for 6 hrs by LC-MS/MS analysis; type: ADME, cell-free; details: read-out: Drug recovery
[31] = Plasma protein binding in human at 1 uM incubated for 6 hrs by LC-MS/MS analysis; type: ADME, cell-free; details: read-out: PPB
[32] = Plasma protein binding in rat assessed as unbound fraction at 1 uM incubated for 6 hrs by LC-MS/MS analysis; type: ADME, cell-free
[33] = target: Cytochrome P450 2C9 (Homo sapiens, UniProt P11712); assay: Inhibition of CYP2C9 in human liver microsomes using sulfaphenazolum […] preincubated for 5 mins followed by substrate addition ande measured after 120 mins in presence of NADPH by LC-MS/MS analysis; type: ADME, Microsome
Chain of Cytochrome P450 2C9 (P11712 whole entry): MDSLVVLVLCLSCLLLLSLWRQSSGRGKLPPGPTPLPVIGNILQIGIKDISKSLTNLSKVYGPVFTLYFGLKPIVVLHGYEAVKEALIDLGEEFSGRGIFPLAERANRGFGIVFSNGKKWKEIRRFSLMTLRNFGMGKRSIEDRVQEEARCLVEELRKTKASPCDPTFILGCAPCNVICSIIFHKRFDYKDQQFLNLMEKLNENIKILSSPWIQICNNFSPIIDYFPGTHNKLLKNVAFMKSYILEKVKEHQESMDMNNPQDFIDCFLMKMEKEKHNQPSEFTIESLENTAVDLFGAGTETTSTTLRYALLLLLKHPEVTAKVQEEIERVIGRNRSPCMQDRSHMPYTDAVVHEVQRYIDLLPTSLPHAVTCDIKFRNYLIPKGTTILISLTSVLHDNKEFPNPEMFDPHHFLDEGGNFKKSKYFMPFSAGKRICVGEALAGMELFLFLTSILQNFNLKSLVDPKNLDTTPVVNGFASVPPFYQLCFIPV

[34] = Plasma protein binding in rat assessed as drug recovery at 1 uM incubated for 6 hrs by LC-MS/MS analysis; type: ADME, cell-free; details: read-out: Drug recovery
[35] = Stability in rat plasma at 1 uM incubated for 6 hrs by LC-MS/MS analysis; type: ADME, cell-free; details: read-out: Stability
[36] = Plasma protein binding in mouse assessed as unbound fraction at 1 uM incubated for 6 hrs by LC-MS/MS analysis; type: ADME, cell-free
[37] = AUC (0 to t) in male Sprague-Dawley rat at 1 mg/kg, iv measured upto 24 hrs by LC-MS analysis; type: ADME, organism-based; details: in vivo
[38] = Plasma protein binding in rat at 1 uM incubated for 6 hrs by LC-MS/MS analysis; type: ADME, cell-free; details: read-out: PPB (converted)
[39] = Volume of distribution at steady state in male Sprague-Dawley rat at 1 mg/kg, iv measured upto 24 hrs by LC-MS analysis; type: ADME, organism-based; details: in vivo, read-out: Vdss
[40] = target: Cytochrome P450 3A4 (Homo sapiens, UniProt P08684); assay: Inhibition of CYP3A4 in human liver microsomes using ketoconazole […] preincubated for 5 mins followed by substrate addition ande measured after 120 mins in presence of NADPH by LC-MS/MS analysis; type: ADME, Microsome
Chain of Cytochrome P450 3A4 (P08684 whole entry): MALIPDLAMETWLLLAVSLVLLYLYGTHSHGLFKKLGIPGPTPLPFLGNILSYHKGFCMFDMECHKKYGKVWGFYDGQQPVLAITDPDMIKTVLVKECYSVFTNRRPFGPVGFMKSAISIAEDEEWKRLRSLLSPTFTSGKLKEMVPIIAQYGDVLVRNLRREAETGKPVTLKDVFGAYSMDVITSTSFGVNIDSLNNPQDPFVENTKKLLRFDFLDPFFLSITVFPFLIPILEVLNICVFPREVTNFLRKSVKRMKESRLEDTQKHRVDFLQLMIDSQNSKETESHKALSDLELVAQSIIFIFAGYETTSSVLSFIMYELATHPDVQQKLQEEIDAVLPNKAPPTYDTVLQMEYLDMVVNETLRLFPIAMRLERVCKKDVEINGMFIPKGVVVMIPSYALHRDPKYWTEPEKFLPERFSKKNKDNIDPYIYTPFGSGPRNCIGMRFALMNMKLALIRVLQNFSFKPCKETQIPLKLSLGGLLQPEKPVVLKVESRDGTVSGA

[41] = Solubility of the compound at pH 4.0 by LC-MS/MS analysis; type: physicochemical; details: buffer
[42] = target: Cytochrome P450 2D6 (Homo sapiens, UniProt P10635); assay: Inhibition of CYP2D6 in human liver microsomes using quinidine […] preincubated for 5 mins followed by substrate addition ande measured after 120 mins in presence of NADPH by LC-MS/MS analysis; type: ADME, Microsome
Chain of Cytochrome P450 2D6 (P10635 whole entry): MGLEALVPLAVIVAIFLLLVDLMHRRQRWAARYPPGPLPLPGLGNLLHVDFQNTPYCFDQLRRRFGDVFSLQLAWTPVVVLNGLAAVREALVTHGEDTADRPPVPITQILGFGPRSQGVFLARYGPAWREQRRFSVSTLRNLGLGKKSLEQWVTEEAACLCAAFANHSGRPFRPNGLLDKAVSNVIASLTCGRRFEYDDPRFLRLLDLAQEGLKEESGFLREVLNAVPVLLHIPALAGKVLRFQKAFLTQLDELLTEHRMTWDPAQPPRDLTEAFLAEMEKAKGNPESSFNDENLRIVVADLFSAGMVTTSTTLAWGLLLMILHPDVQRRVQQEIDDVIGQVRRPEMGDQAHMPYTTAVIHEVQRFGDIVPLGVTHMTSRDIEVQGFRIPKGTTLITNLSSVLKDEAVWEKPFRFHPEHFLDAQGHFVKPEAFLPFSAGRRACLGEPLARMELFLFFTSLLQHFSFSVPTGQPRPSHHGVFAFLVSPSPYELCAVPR

[43] = Stability in mouse plasma at 1 uM incubated for 6 hrs by LC-MS/MS analysis; type: ADME, cell-free; details: read-out: Stability
[44] = Half life in male Sprague-Dawley rat at 1 mg/kg, iv measured upto 24 hrs by LC-MS analysis; type: ADME, organism-based; details: in vivo
[45] = Cmax in male Sprague-Dawley rat at 10 mg/kg, IG measured upto 24 hrs by LC-MS analysis; type: ADME, organism-based; details: in vivo, po
[46] = system: HepG2; assay: Cytotoxicity against human HepG2 cells assessed as inhibition of cell growth measured after 48 hrs by MTT assay; type: functional, cell-based; details: HepG2, 48 h
[47] = Plasma protein binding in human assessed as unbound fraction at 1 uM incubated for 6 hrs by LC-MS/MS analysis; type: ADME, cell-free
[48] = liver microsomes, read-out: CLH

C[C@@H](O)[C@H](NC(=O)c1ccc(C#Cc2ccc(/C=N/N3CCOCC3)cc2)cc1)C(=O)NO
half-life at 1 µM ([1]; liver microsomes): 4.98 h | MIC [2]: > 64 µg/mL | MIC [3]: > 64 µg/mL | MIC [4]: 1 µg/mL (≈ 2.22 µM) | CLint scaled [5]: 7.04 mL/min/kg | half-life at 1 µM ([6]; liver microsomes): 7.9 h | half-life at 1 µM ([7]; liver microsomes): 6.1 h | MIC [8]: 1 µg/mL (≈ 2.22 µM) | Ratio [9]: 2 | CLint scaled [10]: 8.15 mL/min/kg | CLint scaled [11]: 6.76 mL/min/kg | microsomal CLint at 1 µM [12, 48]: 1.79 µL/min/mg | MIC [13]: 0.25 µg/mL (≈ 0.555 µM) | microsomal CLint at 1 µM [14, 48]: 4.53 µL/min/mg | microsomal CLint at 1 µM [15]: 7.16 µL/min/mg

C[C@@H](O)[C@H](NC(=O)c1ccc(C#Cc2ccc(/C=N/N3CCCC3)cc2)cc1)C(=O)NO
IC50 [16]: > 30 µM | solubility [17]: 101 µM (≈ 43.9 µg/mL) | IC50 [18]: > 30 µM | MRT last at 24 h [19]: 1.31 h | bioavailability [20]: 13.3% | t1/2 ([1]; microsomes, 1 µM): 5.62 h | fraction unbound at 6 h, 1 µM [21]: 0.002 | MIC [2]: > 64 µg/mL | solubility [22]: 9.41 µM (≈ 4.09 µg/mL) | AUC(0-t) at 24 h [23]: 1050 ng·h/mL | MRT last at 24 h [24]: 3.41 h | MIC [3]: 8 µg/mL (≈ 18.4 µM) | half-life [25]: 2.5 h | remaining at 6 h, 1 µM [26]: 113% | MIC [4]: 0.25 µg/mL (≈ 0.575 µM) | clearance [27]: 20.6 mL/min/kg | recovery at 6 h, 1 µM [28]: 110% | CLint scaled [5]: 33.8 mL/min/kg | Tmax [29]: 4 h | recovery at 6 h, 1 µM [30]: 103% | t1/2 ([6]; microsomes, 1 µM): 4.14 min | fraction unbound at 6 h, 1 µM [31]: 0.001 | t1/2 ([7]; microsomes, 1 µM): 3.91 min | fraction unbound at 6 h, 1 µM [32]: 0.0016 | IC50 [33]: > 30 µM | MIC [8]: 2 µg/mL (≈ 4.6 µM) | recovery at 6 h, 1 µM [34]: 102% | remaining at 6 h, 1 µM [35]: 109% | fraction unbound at 6 h, 1 µM [36]: 0.00232 | CLint scaled [10]: 8.59 mL/min/kg | AUC(0-t) at 24 h [37]: 791 ng·h/mL | fraction unbound at 6 h, 1 µM [38]: 0.002 | CLint scaled [11]: 165 mL/min/kg | CLH ([12]; microsomes, 1 µM): 17.6 µL/min/mg | Vd [39]: 1.8 L/kg | IC50 [40]: > 30 µM | solubility [41]: 4.8 µM (≈ 2.09 µg/mL) | IC50 [42]: > 30 µM | MIC [13]: 0.06 µg/mL (≈ 0.138 µM) | remaining at 6 h, 1 µM [43]: 111% | half-life [44]: 1.09 h | CLH ([14]; microsomes, 1 µM): 9.76 µL/min/mg | Cmax [45]: 218 ng/mL | IC50 [46]: > 30 µM | fraction unbound at 6 h, 1 µM [47]: 0.0013
